Experimental data from patent US20250326748A1, “COMPOUNDS AND METHODS FOR MODULATING SPLICING” (REMIX THERAPEUTICS INC., priority 2022, published 2025).

Experiments:
[1] = test system: Target C; experiment: HiBiT protein abundance assay, Target C (K562 HiBiT knock-in); format: cell-based, human; conditions: HiBiT knock-in cells, 24 hours
Protocol: (§1) Cells were maintained in IMDM with 10% FBS. Before the assay, cells were diluted with […] growth media (IMDM+1% FBS media) and were seeded in a 384-well plate at a density of 10000 cells/well (for each cell line listed in Table 6). Each compound was prepared as a 10-point 3-old serial dilution in DMSO with the top dose at a final concentration of 10 μM in the well. Unmodified K562 cells were added at the previously specified density with DMSO to serve as an assay baseline and positive control (PC) and DMSO only with the respective modified cell lines was added to the negative control (NC) columns. Final DMSO concentration was kept at or below 0.25%. Treated cell plates were placed in an incubator at 37° C. with 5% CO2 for 24 hours. After 24 hours, 25 μL of Complete HiBit Lytic reagent was added to each well at room temperature (e.g. one plate requiring 10 ml Lytic Buffer, 100 μL LgBiT Protein, 200 μL Lytic Substrate), shaken for 5 minutes at 600 RPM, then left to sit for 10 minutes for signal to stabilize before reading on a Spark Cyto plate reader (Tecan) with a 500 ms measurement time.
(§2) To determine compound effects on protein abundance of each target in Table 6, the percent response for each respective cell line was calculated at each compound concentration as follows:
(§3) For the normalized response at each concentration, a four-parameter logistical regression was fit to the data and the response was interpolated at the 50% value to determine a concentration for protein abundance at 50% (IC50) the untreated control.

[2] = test system: HiBiT-tagged HTT protein; experiment: HiBiT protein abundance assay, HTT (K562 HiBiT knock-in); format: cell-based, human; conditions: HiBiT knock-in cells, 24 hours
Protocol: (§4) Compounds described herein were used to screen for effects on quantitative protein abundance using a HiBit assay system (Promega). Quantitative protein abundance was determined by measuring the protein levels of HiBit-tagged protein targets expressed in cell culture via luminescence using the Nano-Glo HiBiT Lytic Detection System, which uses a split complementation assay format to reconstitute NanoBiT enzyme to generate a luminescent signal. A protein abundance assay was developed such that endogenous protein targets could be modified with the HiBiT peptide tag and their abundance could be assessed after compound treatment. Briefly, K562 cell lines containing a HiBiT-modification were treated with various compounds described herein (e.g., compounds of Formulas (I), or (II)). After treatment for 24 hours, the protein abundance of a specific target was determined by measuring luminescence.
(§5) • Promega Nano-Glo HiBiT Lytic Detection System (cat #N3030) • Corning 384-well TC-treated microplates (cat #3570)
as §1, §2, §3

[3] = test system: K562 cells; experiment: Cell viability, Cell Titer Glo 2.0 assay, K562; conditions: 72 hours
[4] = test system: HiBiT-tagged MYB protein; experiment: HiBiT protein abundance assay, MYB (K562 HiBiT knock-in); format: cell-based, human; conditions: HiBiT knock-in cells, 24 hours
Protocol: as §4, §5, §1, §2, §3

Row | IC50 [1] | IC50 [2] | IC50 [4] | SMILES | Effect on Cell Viability, K562 [3]
1 | < 100 nM | < 100 nM | < 100 nM | CN[C@H]1CCN(c2cnc3nc(-c4cc5cn(C)nc5c(C)c4O)ccc3c2)C1 [Compound 111] | A (<100 nM)
2 | < 100 nM | < 100 nM | < 100 nM | Cn1cc2cc(-c3cnc4cc(C5CCNCC5)ccc4n3)c(O)c(F)c2n1 [Compound 167, 7-fluoro-2-methyl-5-[6-(piperidin-4-yl)quinoxalin-2-yl]indazol-6-ol] | A (<100 nM)
